Laboratory results as given in patent publication US20100267561A1, “HERBICIDAL PYRIDAZINONE DERIVATIVES” (priority 2007, published 2010).

What was measured:
Type in all cases: in vivo
[1] = test system: blackgrass (Alopecurus myosuroides); assay: Test B pre-/postemergence plant response; details: for Blackgrass plant response rating: 8 g ai/ha
Method in brief: (§1)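 Preemergence and postemergence (plants 2-18 cm, 1- to 4-leaf stage) applications used test chemicals in a non-phytotoxic solvent with surfactant. Plants were held in a greenhouse 13 to 15 days, then rated visually against controls on a 0-100 scale (0 no effect, 100 complete control).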

[2] = test system: catchweed bedstraw (Galium aparine); assay: Test B pre-/postemergence plant response; details: Preemergence
Method in brief: as §1

[3] = test system: cocklebur (Xanthium strumarium); assay: Test B pre-/postemergence plant response; details: for Cocklebur plant response rating: 8 g ai/ha
Method in brief: as §1

[4] = test system: common (oilseed) sunflower (Helianthus annuus); assay: Test B pre-/postemergence plant response; details: Preemergence
Method in brief: as §1

[5] = test system: common ragweed (Ambrosia elation); assay: Test B pre-/postemergence plant response; details: for Ragweed plant response rating: 8 g ai/ha
Method in brief: as §1

[6] = test system: giant foxtail (Setaria faberii); assay: Test B pre-/postemergence plant response; details: for Foxtail, Giant plant response rating: 8 g ai/ha
Method in brief: as §1

[7] = test system: goosegrass (Eleusine indica); assay: Test B pre-/postemergence plant response; details: for Goosegrass plant response rating: 8 g ai/ha
Method in brief: as §1

[8] = test system: johnsongrass (Sorghum halepense); assay: Test B pre-/postemergence plant response; details: for Johnsongrass plant response rating: 8 g ai/ha
Method in brief: as §1

[9] = test system: lambsquarters (Chenopodium album); assay: Test B pre-/postemergence plant response; details: for Lambsquarters plant response rating: 8 g ai/ha
Method in brief: as §1

[10] = test system: large crabgrass (Digitaria sanguinalis); assay: Test B pre-/postemergence plant response; details: for Crabgrass, Large plant response rating: 8 g ai/ha
Method in brief: as §1

[11] = test system: wheat (Triticum aestivum); assay: Test B pre-/postemergence plant response; details: for Wheat plant response rating: 8 g ai/ha
Method in brief: as §1

wild oat (Avena fatua) = assay: Test B pre-/postemergence plant response; details: for Oat, Wild plant response rating: 8 g ai/ha
Method in brief: as §1

[12] = test system: yellow nutsedge (Cyperus esculentus); assay: Test B pre-/postemergence plant response; details: for Nutsedge, Yellow plant response rating: 8 g ai/ha
Method in brief: as §1

[13] = test system: windgrass (Apera spica-venti); assay: Test B postemergence plant response; details: for Plant response rating, Windgrass: Postemergence
Method in brief: (§2)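 Compounds applied after emergence to 2–18 cm plants; response read visually 13–15 days later on 0 (none) to 100 (complete control); a dash marks no result.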

[14] = test system: winter barley (Hordeum vulgare); assay: Test B postemergence plant response; details: for Plant response rating, Barley: Postemergence, scale 0 to 100, 0 no effect, 100 complete control
Method in brief: as §2

[15] = Postemergence, 16 g ai/ha, scale 0 to 100
[16] = Postemergence, 31 g ai/ha, scale 0 to 100, 0 no effect, 100 complete control
[17] = Postemergence, 62 g ai/ha, scale 0 to 100, 0 no effect, 100 complete control
[18] = Preemergence, 16 g ai/ha, scale 0 to 100 (0 no effect, 100 complete control)
[19] = Preemergence, 31 g ai/ha, 0 to 100 scale, 0 no effect, 100 complete control
[20] = Preemergence, 62 g ai/ha, scale 0 to 100
[21] = 16 g ai/ha, scale 0 to 100 (0 no effect, 100 complete control)
[22] = Preemergence, 31 g ai/ha, scale 0 to 100 (0 no effect, 100 complete control)
[23] = 8 g ai/ha, postemergence, 0-100 scale

CCc1cc(-c2ccc(Cl)cc2)nn1-c1c(OC(=O)C(C)(C)C)cnn(C)c1=O [Compound 40]
40: Plant response rating, Barley ([14]; 16 g ai/ha)
100: Foxtail, Giant plant response rating ([6]; postemergence, 0-100 scale) | Plant response rating, Foxtail, Giant [6, 15] | Plant response rating, Foxtail, Giant [6, 16] | Plant response rating, Foxtail, Giant [6, 17] | Plant response rating, Foxtail, Giant [6, 18] | Plant response rating, Foxtail, Giant [6, 19] | Plant response rating, Foxtail, Giant [6, 20] | Foxtail, Giant plant response rating ([6]; Preemergence, scale 0 to 100) | Plant response rating, Goosegrass [7, 17] | Plant response rating, Goosegrass [7, 18] | Plant response rating, Goosegrass [7, 19] | Plant response rating, Goosegrass [7, 20] | Plant response rating, Johnsongrass [8, 17] | Plant response rating, Crabgrass, Large [10, 17] | Plant response rating, Crabgrass, Large [10, 18] | Plant response rating, Crabgrass, Large [10, 19] | Plant response rating, Crabgrass, Large [10, 20] | Plant response rating, Wheat [11, 17] | Plant response rating, Oat, Wild (wild oat (Avena fatua); [15]) | Plant response rating, Oat, Wild (wild oat (Avena fatua); [16]) | Plant response rating, Oat, Wild (wild oat (Avena fatua); [17]) | Plant response rating, Windgrass ([13]; 62 g ai/ha, scale 0 to 100, 0 no effect, 100 complete control)
5: Wheat plant response rating ([11]; Preemergence, scale 0 to 100)
35: Barley plant response rating [14, 23]
60: Goosegrass plant response rating ([7]; postemergence, 0-100 scale) | Plant response rating, Wheat [11, 18] | Plant response rating, Wheat [11, 22] | Oat, Wild plant response rating (wild oat (Avena fatua); Preemergence, scale 0 to 100)
70: Crabgrass, Large plant response rating ([10]; postemergence, 0-100 scale) | Wheat plant response rating ([11]; postemergence, 0-100 scale) | Plant response rating, Wheat [11, 15] | Windgrass plant response rating [13, 23] | Plant response rating, Barley ([14]; 31 g ai/ha) | Plant response rating, Barley ([14]; 62 g ai/ha)
45: Crabgrass, Large plant response rating ([10]; Preemergence, scale 0 to 100)
80: Plant response rating, Goosegrass [7, 16] | Plant response rating, Windgrass ([13]; 16 g ai/ha, scale 0 to 100)
90: Plant response rating, Blackgrass [1, 15] | Plant response rating, Blackgrass [1, 16] | Plant response rating, Blackgrass [1, 17] | Johnsongrass plant response rating ([8]; Preemergence, scale 0 to 100) | Plant response rating, Wheat ([11]; Preemergence, 62 g ai/ha, 0 to 100 scale, 0 no effect, 100 complete control) | Plant response rating, Oat, Wild (wild oat (Avena fatua); [22])
0: Plant response rating, Galium [2, 21] | Plant response rating, Galium ([2]; 31 g ai/ha, 0 to 100 scale, 0 no effect, 100 complete control) | Plant response rating, Galium ([2]; 62 g ai/ha, scale 0 to 100) | Galium plant response rating ([2]; 8 g ai/ha, scale 0 to 100) | Cocklebur plant response rating ([3]; postemergence, 0-100 scale) | Plant response rating, Cocklebur [3, 15] | Plant response rating, Cocklebur [3, 16] | Plant response rating, Cocklebur [3, 17] | Plant response rating, Cocklebur [3, 18] | Plant response rating, Cocklebur [3, 19] | Plant response rating, Cocklebur [3, 20] | Cocklebur plant response rating ([3]; Preemergence, scale 0 to 100) | Plant response rating, Sunflower [4, 21] | Plant response rating, Sunflower ([4]; 31 g ai/ha, scale 0 to 100 (0 no effect, 100 complete control)) | Plant response rating, Sunflower ([4]; 62 g ai/ha, scale 0 to 100) | Sunflower plant response rating ([4]; 8 g ai/ha, scale 0 to 100) | Ragweed plant response rating ([5]; postemergence, 0-100 scale) | Plant response rating, Ragweed [5, 15] | Plant response rating, Ragweed [5, 16] | Plant response rating, Ragweed [5, 17] | Plant response rating, Ragweed [5, 18] | Plant response rating, Ragweed [5, 22] | Plant response rating, Ragweed [5, 20] | Ragweed plant response rating ([5]; Preemergence, scale 0 to 100) | Johnsongrass plant response rating ([8]; postemergence, 0-100 scale) | Plant response rating, Johnsongrass [8, 15] | Lambsquarters plant response rating ([9]; postemergence, 0-100 scale) | Plant response rating, Lambsquarters [9, 15] | Plant response rating, Lambsquarters [9, 16] | Plant response rating, Lambsquarters [9, 17] | Plant response rating, Lambsquarters [9, 18] | Plant response rating, Lambsquarters [9, 19] | Plant response rating, Lambsquarters [9, 20] | Lambsquarters plant response rating ([9]; Preemergence, scale 0 to 100) | Nutsedge, Yellow plant response rating ([12]; postemergence, 0-100 scale) | Plant response rating, Nutsedge, Yellow [12, 15] | Plant response rating, Nutsedge, Yellow [12, 16] | Plant response rating, Nutsedge, Yellow [12, 17] | Plant response rating, Nutsedge, Yellow [12, 18] | Plant response rating, Nutsedge, Yellow [12, 22] | Plant response rating, Nutsedge, Yellow [12, 20] | Nutsedge, Yellow plant response rating ([12]; Preemergence, scale 0 to 100)
95: Plant response rating, Blackgrass [1, 18] | Plant response rating, Blackgrass [1, 19] | Plant response rating, Blackgrass [1, 20] | Blackgrass plant response rating ([1]; Preemergence, scale 0 to 100) | Plant response rating, Johnsongrass [8, 18] | Oat, Wild plant response rating (wild oat (Avena fatua); postemergence, 0-100 scale) | Plant response rating, Oat, Wild (wild oat (Avena fatua); [20])
85: Blackgrass plant response rating ([1]; postemergence, 0-100 scale) | Plant response rating, Oat, Wild (wild oat (Avena fatua); [18])
75: Plant response rating, Goosegrass [7, 15]
98: Goosegrass plant response rating ([7]; Preemergence, scale 0 to 100) | Plant response rating, Johnsongrass [8, 16] | Plant response rating, Johnsongrass [8, 19] | Plant response rating, Johnsongrass [8, 20] | Plant response rating, Crabgrass, Large [10, 15] | Plant response rating, Crabgrass, Large [10, 16]
